Data from patent publication US11352349B2, “Type II topoisomerase inhibitors and methods of making and using thereof” (Ohio State Innovation Foundation, priority 2017, dated 2022).
In brackets after ≈: the same amount, converted by molar mass. Like-named read-outs stand apart in the source and are kept apart here.

Experiments:
S. aureus ATCC 29213 = test: MIC by broth microdilution (CLSI), quality control strain S. aureus ATCC 29213; format: cell-based, Staphylococcus aureus; details: multiple values when multiple MIC assays were conducted; for MIC: Staphylococcus aureus, ATCC29213, S. aureus ATCC 29213
Procedure: Minimum inhibitory concentrations were determined using the quality control strain S. aureus ATCC 29213 (Table 1) by the broth microdilution method according to guidelines of the Clinical and Laboratory Standards Institute (CLSI) (Cockerill, F. R.; et al., 2012, Methods for dilution antimicrobial susceptibility tests for bacteria that grow aerobically; approved standard-ninth edition. MA07-A9. Clinical and Laboratory Standard Institute, Wayne, Pa.). […] Published quality control ranges for gepotidacin and ciprofloxacin were used to validate each assay. MICs for selected compounds were also determined using a USA 300 strain of MRSA (Hidron, et al., Lancet Infect. Dis. 2009, 9:384-392). Vancomycin was used as an additional control.

USA 300 strain of MRSA = test: MIC by broth microdilution, USA 300 strain of MRSA; format: cell-based, Staphylococcus aureus; details: multiple values when multiple MIC assays were conducted; for MIC: Staphylococcus aureus, read-out: MIC USA300
Procedure: Minimum inhibitory concentrations were determined using the quality control strain S. aureus ATCC 29213 (Table 1) by the broth microdilution method according to guidelines of the Clinical and Laboratory Standards Institute (CLSI) (Cockerill, F. R.; et al., 2012, Methods for dilution antimicrobial susceptibility tests for bacteria that grow aerobically; approved standard-ninth edition. MA07-A9. Clinical and Laboratory Standard Institute, Wayne, Pa.). […] MICs for selected compounds were also determined using a USA 300 strain of MRSA (Hidron, et al., Lancet Infect. Dis. 2009, 9:384-392). Vancomycin was used as an additional control.

[1] = target: T1, Staphylococcus aureus gyrase (Staphylococcus aureus, UniProt P0A0K8+P20831); test: Staphylococcus aureus gyrase supercoiling assay; format: biochemical
T1 construct: purchased Inspiralis, Norwich, UK
T1 sequence (P20831 whole entry): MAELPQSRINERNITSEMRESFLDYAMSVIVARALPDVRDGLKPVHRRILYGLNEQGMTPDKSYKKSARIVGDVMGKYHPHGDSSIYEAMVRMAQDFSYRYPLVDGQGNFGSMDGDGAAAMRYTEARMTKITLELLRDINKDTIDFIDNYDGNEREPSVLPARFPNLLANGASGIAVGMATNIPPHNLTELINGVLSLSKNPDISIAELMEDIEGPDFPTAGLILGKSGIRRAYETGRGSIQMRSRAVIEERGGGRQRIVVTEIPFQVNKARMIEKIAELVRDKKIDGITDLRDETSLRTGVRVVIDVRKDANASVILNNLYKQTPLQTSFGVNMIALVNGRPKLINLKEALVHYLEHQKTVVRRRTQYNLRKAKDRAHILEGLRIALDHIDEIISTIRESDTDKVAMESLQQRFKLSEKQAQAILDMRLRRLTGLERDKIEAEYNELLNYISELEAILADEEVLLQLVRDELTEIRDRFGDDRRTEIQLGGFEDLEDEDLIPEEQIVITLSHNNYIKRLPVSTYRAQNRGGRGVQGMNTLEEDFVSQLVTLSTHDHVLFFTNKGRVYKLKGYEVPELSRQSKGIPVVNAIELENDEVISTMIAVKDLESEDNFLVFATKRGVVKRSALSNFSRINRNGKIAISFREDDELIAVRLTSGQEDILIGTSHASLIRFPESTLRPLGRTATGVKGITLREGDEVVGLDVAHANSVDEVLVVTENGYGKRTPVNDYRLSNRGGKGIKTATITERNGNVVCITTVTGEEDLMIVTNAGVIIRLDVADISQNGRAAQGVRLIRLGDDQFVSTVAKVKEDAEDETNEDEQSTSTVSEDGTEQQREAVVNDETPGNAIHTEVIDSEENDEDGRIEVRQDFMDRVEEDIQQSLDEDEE
T1 sequence (P0A0K8 whole entry): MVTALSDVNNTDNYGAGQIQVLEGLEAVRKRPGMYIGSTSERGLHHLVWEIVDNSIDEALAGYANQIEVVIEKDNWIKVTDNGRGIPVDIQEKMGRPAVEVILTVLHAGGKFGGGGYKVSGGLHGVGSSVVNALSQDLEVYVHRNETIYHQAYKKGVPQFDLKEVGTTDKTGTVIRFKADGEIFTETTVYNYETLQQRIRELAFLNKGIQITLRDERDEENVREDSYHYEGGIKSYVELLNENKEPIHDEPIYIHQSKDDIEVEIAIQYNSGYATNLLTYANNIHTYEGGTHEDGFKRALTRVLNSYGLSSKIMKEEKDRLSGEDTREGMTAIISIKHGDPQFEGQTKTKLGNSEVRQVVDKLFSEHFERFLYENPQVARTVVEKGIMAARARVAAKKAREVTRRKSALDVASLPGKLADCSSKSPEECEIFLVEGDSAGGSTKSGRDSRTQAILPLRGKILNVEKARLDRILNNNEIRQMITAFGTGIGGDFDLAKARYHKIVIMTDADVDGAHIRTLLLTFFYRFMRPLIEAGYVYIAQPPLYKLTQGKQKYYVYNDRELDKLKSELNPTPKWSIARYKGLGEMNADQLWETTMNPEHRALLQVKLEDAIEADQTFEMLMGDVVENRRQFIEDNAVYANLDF
Procedure: (§1) A subset of analogs was used to assess the degree of inhibition of DNA gyrase or TopoIV (Inspiralis, Norwich, UK), both to establish the mechanism of action and to evaluate the relative balance of inhibitory activities (Table 1). A subset of compound was also assayed to determine the degree of inhibition of human topoisomerase II (Inspiralis, Norwich, UK)).
(§2) In all experiments, the activity of the enzymes was determined prior to the testing of the compounds and 1 unit (U) was defined as the amount of enzyme required to just fully supercoil, relax or decatenate the substrate (see explanation of gels). This amount of enzyme was initially used in determination of control inhibitor activity. These experiments were performed in duplicate.
(§3) For all assays the final DMSO concentration was 1%. 10 mM stocks of the compounds were serially diluted into 10% DMSO at 1 mM, 0.5 mM, 0.25 mM, 0.1 mM, 0.05 mM, 0.01 mM, 0.005 mM, 0.001 mM, 0.0005 mM, 0.0001 mM and 0.00005 mM. 3.0 μl of each dilution was added to a 30 μl assay.
(§4) Bands were visualised by ethidium staining for 20 minutes and destaining for 20 minutes. Gels were scanned using documentation equipment (GeneGenius, Syngene, Cambridge, UK) and % inhibition levels (where appropriate) were obtained with gel scanning software. (GeneTools, Syngene, Cambridge, UK)
Staphylococcus aureus gyrase supercoiling
1 U of DNA gyrase was incubated with 0.5 μg of relaxed pBR322 DNA in a 30 μl reaction at 37° C. for 30 minutes under the following conditions: 40 mM HEPES. KOH (pH 7.6), 10 mM magnesium acetate, 10 mM DTT, 2 mM ATP, 500 mM potassium glutamate and 0.05 mg/ml BSA.
Each reaction was stopped by the addition of 30 μl chloroform/iso-amyl alcohol (26:1) and 30 μl Stop Dye (40% sucrose (w/v), 100 mM Tris.HCl (pH 7.5), 10 mM EDTA, 0.5 μg/ml bromophenol blue), before being loaded on a 1.0% TAE gel run at 70V for 2 hours.

[2] = target: T2, Staphylococcus aureus Topo IV (Staphylococcus aureus, UniProt P0C1S7+P0C1U9); test: Staphylococcus aureus Topo IV decatenation assay; format: biochemical
T2 construct: purchased Inspiralis, Norwich, UK
T2 sequence (P0C1S7 whole entry): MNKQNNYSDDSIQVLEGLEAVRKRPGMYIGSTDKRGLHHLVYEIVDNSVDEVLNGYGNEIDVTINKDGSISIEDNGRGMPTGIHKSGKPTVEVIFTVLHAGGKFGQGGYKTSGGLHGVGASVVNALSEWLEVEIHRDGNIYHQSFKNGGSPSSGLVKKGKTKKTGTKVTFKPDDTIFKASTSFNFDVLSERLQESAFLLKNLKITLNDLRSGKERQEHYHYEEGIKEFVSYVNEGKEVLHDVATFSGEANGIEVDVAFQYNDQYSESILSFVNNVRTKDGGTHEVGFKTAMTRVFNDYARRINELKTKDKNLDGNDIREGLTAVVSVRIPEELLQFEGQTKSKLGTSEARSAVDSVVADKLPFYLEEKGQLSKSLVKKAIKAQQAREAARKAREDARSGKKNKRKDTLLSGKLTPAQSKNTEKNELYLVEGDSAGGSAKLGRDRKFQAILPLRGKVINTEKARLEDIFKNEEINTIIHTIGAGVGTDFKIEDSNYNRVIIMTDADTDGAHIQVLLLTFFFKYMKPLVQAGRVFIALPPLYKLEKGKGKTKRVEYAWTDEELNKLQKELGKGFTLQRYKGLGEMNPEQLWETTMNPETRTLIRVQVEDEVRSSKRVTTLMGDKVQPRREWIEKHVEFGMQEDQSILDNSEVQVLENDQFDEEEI
T2 sequence (P0C1U9 whole entry): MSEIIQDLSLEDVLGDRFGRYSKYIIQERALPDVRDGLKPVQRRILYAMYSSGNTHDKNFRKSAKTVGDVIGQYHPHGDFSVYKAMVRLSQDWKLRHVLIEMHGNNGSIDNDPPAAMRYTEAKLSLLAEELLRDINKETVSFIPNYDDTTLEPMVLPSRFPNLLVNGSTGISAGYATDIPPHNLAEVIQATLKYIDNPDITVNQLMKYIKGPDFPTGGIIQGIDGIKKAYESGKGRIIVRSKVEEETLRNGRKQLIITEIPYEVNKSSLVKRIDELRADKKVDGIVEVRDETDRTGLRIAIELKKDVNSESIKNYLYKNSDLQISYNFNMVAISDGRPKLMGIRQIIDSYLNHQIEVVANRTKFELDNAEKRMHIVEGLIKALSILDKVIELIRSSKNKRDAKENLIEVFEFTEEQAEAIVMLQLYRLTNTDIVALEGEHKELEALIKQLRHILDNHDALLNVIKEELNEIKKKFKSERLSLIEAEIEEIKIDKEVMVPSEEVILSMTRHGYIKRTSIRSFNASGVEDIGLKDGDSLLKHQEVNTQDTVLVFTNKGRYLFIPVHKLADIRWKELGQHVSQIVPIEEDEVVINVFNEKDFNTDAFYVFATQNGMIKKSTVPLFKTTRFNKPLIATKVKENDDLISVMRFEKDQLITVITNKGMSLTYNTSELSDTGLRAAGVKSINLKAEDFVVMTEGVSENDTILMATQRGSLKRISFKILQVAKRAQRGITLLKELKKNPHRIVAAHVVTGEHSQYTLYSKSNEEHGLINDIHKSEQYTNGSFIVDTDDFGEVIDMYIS
Procedure: as §1, §2, §3, §4
Staphylococcus aureus Topo IV Decatenation Assay
1 U of Topo IV was incubated with 200 ng kDNA DNA in a 30 μl reaction at 37° C. for 30 minutes under the following conditions: 50 mM Tris.HCl (7.5), 5 mM MgCl2, 5 mM DTT, 1.5 mM ATP, 350 mM potassium glutamate and 0.05 mg/ml BSA.
Each reaction was stopped by the addition of 30 μl chloroform/iso-amyl alcohol (26:1) and 30 μl Stop Dye, before being loaded on a 1.0% TAE gel run at 70V for 2 hours.

human topo II = target: T3, human topo II (Homo sapiens, UniProt P11388); test: Topoisomerase II (alpha) decatenation assay; format: biochemical; details: activity remaining at 100 μM compound; read-out: hTopoll (% activity remaining at 100 μM)
T3 construct: purchased Inspiralis, Norwich, UK
T3 sequence (P11388 whole entry): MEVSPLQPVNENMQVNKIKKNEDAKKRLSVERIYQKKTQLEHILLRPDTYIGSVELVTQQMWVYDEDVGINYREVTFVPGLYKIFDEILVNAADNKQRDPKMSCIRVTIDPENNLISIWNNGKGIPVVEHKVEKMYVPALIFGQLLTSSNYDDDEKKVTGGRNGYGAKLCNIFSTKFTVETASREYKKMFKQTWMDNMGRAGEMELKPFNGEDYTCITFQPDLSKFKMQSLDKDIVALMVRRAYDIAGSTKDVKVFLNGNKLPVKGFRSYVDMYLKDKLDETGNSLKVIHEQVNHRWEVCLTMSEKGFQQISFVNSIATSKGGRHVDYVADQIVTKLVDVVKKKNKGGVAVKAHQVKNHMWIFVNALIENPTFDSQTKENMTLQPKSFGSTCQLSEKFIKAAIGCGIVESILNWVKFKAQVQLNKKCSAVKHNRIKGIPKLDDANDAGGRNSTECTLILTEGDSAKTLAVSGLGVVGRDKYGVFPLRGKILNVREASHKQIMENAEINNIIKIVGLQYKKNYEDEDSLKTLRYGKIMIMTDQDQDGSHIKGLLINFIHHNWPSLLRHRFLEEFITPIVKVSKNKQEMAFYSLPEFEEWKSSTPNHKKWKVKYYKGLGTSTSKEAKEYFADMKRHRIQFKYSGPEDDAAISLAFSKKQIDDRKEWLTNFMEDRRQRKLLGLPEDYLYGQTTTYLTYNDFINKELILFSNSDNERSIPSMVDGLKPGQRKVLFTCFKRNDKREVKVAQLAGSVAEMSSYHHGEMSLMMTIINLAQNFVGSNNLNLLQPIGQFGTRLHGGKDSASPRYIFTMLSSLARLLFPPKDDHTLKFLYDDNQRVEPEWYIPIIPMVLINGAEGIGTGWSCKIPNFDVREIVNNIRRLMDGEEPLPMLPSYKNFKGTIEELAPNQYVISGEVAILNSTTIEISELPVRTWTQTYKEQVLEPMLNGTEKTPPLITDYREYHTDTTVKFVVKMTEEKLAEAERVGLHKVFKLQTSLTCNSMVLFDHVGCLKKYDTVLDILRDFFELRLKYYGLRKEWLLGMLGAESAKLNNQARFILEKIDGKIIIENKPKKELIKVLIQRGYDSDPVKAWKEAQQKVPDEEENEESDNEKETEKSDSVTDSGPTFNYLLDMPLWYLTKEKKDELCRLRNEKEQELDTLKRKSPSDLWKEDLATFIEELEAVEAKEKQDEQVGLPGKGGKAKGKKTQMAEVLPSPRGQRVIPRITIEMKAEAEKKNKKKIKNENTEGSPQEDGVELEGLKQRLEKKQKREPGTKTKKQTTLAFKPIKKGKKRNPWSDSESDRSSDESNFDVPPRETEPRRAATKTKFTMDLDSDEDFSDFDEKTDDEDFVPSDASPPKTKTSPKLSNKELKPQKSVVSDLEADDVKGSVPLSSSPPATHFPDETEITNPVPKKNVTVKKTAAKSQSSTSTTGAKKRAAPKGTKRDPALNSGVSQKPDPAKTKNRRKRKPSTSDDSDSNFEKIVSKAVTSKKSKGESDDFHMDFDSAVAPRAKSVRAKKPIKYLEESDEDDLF
Procedure: as §1, §2, §3, §4
Topoisomerase II (Alpha) Decatenation Assay
Each reaction was stopped by the addition of 30 μl chloroform/iso-amyl alcohol (26:1) and 30 μl Stop Dye, before being loaded on a 1.0% TAE gel run at 90V for 2 hours.

[3] = S. aureus DNA gyrase supercoiling, read-out: Gyrase IC50
[4] = S. aureus Topo IV decatenation, read-out: TopolV Decat IC50

Row | SMILES | MIC (S. aureus ATCC 29213) [µg/mL] | MIC (USA 300 strain of MRSA) [µg/mL] | IC50 [1] [nM] | IC50 [2] [nM] | remaining activity at 100 µM (human topo II) [%] | MIC USA300 (USA 300 strain of MRSA) [µg/mL] | IC50 [1, 3] [nM] | IC50 [2, 4] [nM] | MIC 29213 (S. aureus ATCC 29213; S. aureus ATCC 29213) [µg/mL]
1 | COc1ccc2ncc(F)c(CC[C@H]3OC[C@H](NCc4ccc5c(c4)OCCO5)CO3)c2n1 [AB-0015, N-((2,3-dihydrobenzo[b][1,4]dioxin-6-yl)methyl)-2-(2-(3-fluoro-6-methoxy-1,5-naphthyridin-4-yl)ethyl)-trans-1,3-dioxan-5-amine] | ≤ 0.25 | 0.125 (≈ 0.274 µM) | 30 | 980 | 55 | – | – | – | –
2 | COc1ccc2ncc(F)c(C(O)C[C@H]3OC[C@H](NCc4ccc5c(c4)OCCO5)CO3)c2c1 (stereo partly drawn) [AB-0016, 2-(5-(((2,3-dihydrobenzo[b][1,4]dioxin-6-yl)methyl)amino)-trans-1,3-dioxan-2-yl)-1-(3-fluoro-6-methoxyquinolin-4-yl)ethan-1-ol] | 0.125 (≈ 0.266 µM) | 0.25 (≈ 0.531 µM) | 90 | 7980 | 77.4 | 0.25 (≈ 0.531 µM) | – | – | –
3 | COc1ccc2ncc(F)c(CC[C@H]3OC[C@H](NCc4cc5c(cn4)OCCC5)CO3)c2n1 [AB-0018] | ≤ 0.25 | 0.25 (≈ 0.55 µM) | – | – | 79.8 | – | 160 | 5330 | –
4 | COc1ccc2ncc(F)c(C(O)C[C@H]3OC[C@H](NCc4cc5c(cn4)OCCC5)CO3)c2c1 (stereo partly drawn) [AB-0020, 2-(5-(((3,4-dihydro-2H-pyrano[2,3-c]pyridin-6-yl)methyl)amino)-trans-1,3-dioxan-2-yl)-1-(3-fluoro-6-methoxyquinolin-4-yl)ethan-1-ol] | 0.5 (≈ 1.06 µM) | 1 (≈ 2.13 µM) | – | – | 92.9 | – | 130 | 15200 | –
5 | COc1ccc2nccc(CC[C@H]3OC[C@H](NCc4ccc5c(n4)NC(=O)CS5)CO3)c2c1 [AB-0021, 6-(((2-(2-(6-methoxyquinolin-4-yl)ethyl)-trans-1,3-dioxan-5-yl)amino)methyl)-2H-pyrido[3,2-b][1,4]thiazin-3(4H)-one] | 0.5 (≈ 1.07 µM) | 0.5 (≈ 1.07 µM) | – | – | 91.1 | – | 590 | > 100000 | –
6 | COc1ccc2nccc(CC[C@H]3OC[C@H](NCc4ccc(Cl)c(F)c4)CO3)c2c1 [AB-0030, N-(4-chloro-3-fluorobenzyl)-2-(2-(6-methoxyquinolin-4-yl)ethyl)-trans-1,3-dioxan-5-amine] | 2 (≈ 4.64 µM) | 1 (≈ 2.32 µM) | – | – | 97.8 | – | 950 | > 100000 | –
7 | COc1ccc2nccc(CC[C@H]3OC[C@H](NC/C=C/c4ccccc4)CO3)c2c1 [AB-0051] | 1 (≈ 2.47 µM) | 1 (≈ 2.47 µM) | – | – | 93.7 | – | 420 | 50000 to 100000 | –
8 | COc1ccc2nccc(CC[C@H]3OC[C@H](NCc4ccc(Cl)cc4)CO3)c2c1 [AB-0052, N-(4-chlorobenzyl)-2-(2-(6-methoxyquinolin-4-yl)ethyl)-trans-1,3-dioxan-5-amine] | 1 (≈ 2.42 µM) | 4 (≈ 9.69 µM) | – | – | 97.8 | – | 1160 | > 100000 | –
9 | COc1ccc2nccc(CC[C@H]3OC[C@H](NCc4ccc5c(n4)NC(=O)CO5)CO3)c2c1 [AB-0055, 6-(((2-(2-(6-methoxyquinolin-4-yl)ethyl)-trans-1,3-dioxan-5-yl)amino)methyl)-2H-pyrido[3,2-b][1,4]oxazin-3(4H)-one] | 0.5 (≈ 1.11 µM) | 1 (≈ 2.22 µM) | – | – | 99.1 | – | 780 | > 100000 | –
10 | COc1ccc2nccc(CC[C@H]3OC[C@H](NCc4ccc5c(c4)NC(=O)CO5)CO3)c2c1 [AB-0057, 6-(((2-(2-(6-methoxyquinolin-4-yl)ethyl)-trans-1,3-dioxan-5-yl)amino)methyl)-2H-benzo[b][1,4]oxazin-3(4H)-one] | 1 (≈ 2.22 µM) | 1 (≈ 2.22 µM) | – | – | 93 | – | 740 | > 100000 | 2 (≈ 4.45 µM)
11 | COc1ccc2ncc(F)c(CC[C@H]3OC[C@H](NCc4ccc5c(n4)NC(=O)CS5)CO3)c2n1 [AB-0059, 6-(((2-(2-(3-fluoro-6-methoxy-1,5-naphthyridin-4-yl)ethyl)-trans-1,3-dioxan-5-yl)amino)methyl)-2H-pyrido[3,2-b][1,4]thiazin-3(4H)-one] | ≤ 0.5 | 0.25 (≈ 0.515 µM) | – | – | 95.7 | – | 170 | > 100000 | –
12 | COc1ccc2ncc(F)c(CC[C@H]3OC[C@H](NCc4ccc5c(n4)NC(=O)CO5)CO3)c2n1 [AB-0060] | 0.125 (≈ 0.266 µM) | 0.25 (≈ 0.533 µM) | 130 | 5000 to 10000 | 83.1 | – | – | – | –
13 | COc1ccc2ncc(F)c(CC[C@H]3OC[C@H](NCc4cc5c(cn4)OCCO5)CO3)c2n1 [AB-0061, N-((2,3-dihydro-[1,4]dioxino[2,3-c]pyridin-7-yl)methyl)-2-(2-(3-fluoro-6-methoxy-1,5-naphthyridin-4-yl)ethyl)-trans-1,3-dioxan-5-amine] | 0.125 (≈ 0.274 µM) | 0.25 (≈ 0.548 µM) | – | – | 69.6 | – | 420 | 61000 | –
14 | COc1ccc2ncc(F)c(CC[C@H]3OC[C@H](NCc4ccc(F)c(F)c4)CO3)c2n1 [AB-0062, N-(3,4-difluorobenzyl)-2-(2-(3-fluoro-6-methoxy-1,5-naphthyridin-4-yl)ethyl)-trans-1,3-dioxan-5-amine] | 2 (≈ 4.61 µM) | 4 (≈ 9.23 µM) | – | – | 90.7 | – | 4430 | > 100000 | –
